Laboratory results reported in ChEMBL document CHEMBL1143160, “Novel 3-alkoxy-1H-pyrazolo[3,4-d]pyrimidines as EGFR and erbB2 receptor tyrosine kinase inhibitors” (Bioorg Med Chem Lett, 2008).

How the values were obtained:
[1] = Antiproliferative activity against human BT474C cells; type: functional, cell-based
[2] = target: Epidermal growth factor receptor (Homo sapiens, UniProt P00533)
[3] = target: T1, Receptor tyrosine-protein kinase erbB-2 (Homo sapiens, UniProt P04626); experiment: Inhibition of erbB2
T1 sequence (P04626 whole entry): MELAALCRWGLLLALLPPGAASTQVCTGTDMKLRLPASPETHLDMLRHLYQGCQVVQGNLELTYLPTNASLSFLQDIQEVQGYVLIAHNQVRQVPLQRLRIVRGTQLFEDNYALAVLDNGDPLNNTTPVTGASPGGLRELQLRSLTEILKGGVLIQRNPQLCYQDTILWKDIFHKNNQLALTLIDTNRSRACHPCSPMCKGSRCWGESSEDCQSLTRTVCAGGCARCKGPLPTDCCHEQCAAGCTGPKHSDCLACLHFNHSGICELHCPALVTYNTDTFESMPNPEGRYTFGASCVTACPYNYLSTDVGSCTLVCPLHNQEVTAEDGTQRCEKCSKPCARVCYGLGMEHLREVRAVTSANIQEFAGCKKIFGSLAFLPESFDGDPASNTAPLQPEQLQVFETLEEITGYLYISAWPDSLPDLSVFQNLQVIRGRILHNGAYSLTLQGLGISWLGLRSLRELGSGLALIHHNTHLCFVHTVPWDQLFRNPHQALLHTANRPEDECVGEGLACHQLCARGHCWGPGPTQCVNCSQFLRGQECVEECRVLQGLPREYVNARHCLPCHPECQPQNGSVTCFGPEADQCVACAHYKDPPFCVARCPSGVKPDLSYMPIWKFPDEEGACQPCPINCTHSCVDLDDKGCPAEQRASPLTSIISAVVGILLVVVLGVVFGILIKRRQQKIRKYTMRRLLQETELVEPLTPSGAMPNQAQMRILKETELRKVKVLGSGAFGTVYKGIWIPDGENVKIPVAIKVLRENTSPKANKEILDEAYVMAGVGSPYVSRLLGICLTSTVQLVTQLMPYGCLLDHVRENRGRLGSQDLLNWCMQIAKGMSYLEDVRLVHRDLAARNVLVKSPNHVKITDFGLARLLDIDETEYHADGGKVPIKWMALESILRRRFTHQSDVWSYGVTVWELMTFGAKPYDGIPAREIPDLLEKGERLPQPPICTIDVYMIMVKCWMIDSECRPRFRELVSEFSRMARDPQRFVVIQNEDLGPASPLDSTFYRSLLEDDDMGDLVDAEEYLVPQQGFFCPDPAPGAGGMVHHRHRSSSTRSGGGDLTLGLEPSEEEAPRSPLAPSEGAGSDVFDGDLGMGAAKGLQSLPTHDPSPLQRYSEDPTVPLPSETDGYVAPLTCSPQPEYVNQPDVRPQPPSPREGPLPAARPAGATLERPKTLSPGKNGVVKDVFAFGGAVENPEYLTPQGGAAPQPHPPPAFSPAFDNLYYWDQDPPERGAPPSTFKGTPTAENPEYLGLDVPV

[4] = target: T1, Receptor tyrosine-protein kinase erbB-2; experiment: Inhibition of erB2 autophosphorylation in clone 24 cells; type: cell-based
[5] = Oral bioavailability in male and female Beagle dog at 0.4 mg/kg; type: ADME, organism-based, Canis lupus familiaris; conditions: both, in vivo
[6] = Half life in male and female Beagle dog at 0.2 mg/kg, iv and 0.4 mg/kg, po; type: ADME, organism-based, Canis lupus familiaris; conditions: both, in vivo
[7] = Volume of distribution at steady state in male and female Beagle dog at 0.2 mg/kg, iv and 0.4 mg/kg, po; type: ADME, organism-based, Canis lupus familiaris; conditions: both, in vivo, read-out: Vdss
[8] = Protein binding in Beagle dog plasma assessed as unbound ligand at 0.2 mg/kg, iv and 0.4 mg/kg, po; type: ADME, organism-based, Canis lupus familiaris; conditions: read-out: PPB
[9] = Protein binding in rat plasma assessed as unbound ligand at 0.4 mg/kg, iv and 1 mg/kg, po; type: ADME, organism-based
[10] = Oral bioavailability in rat at 1 mg/kg; type: ADME, organism-based; conditions: in vivo
[11] = test system: KB; experiment: Antiproliferative activity against EGF-induced human KB cells; type: functional, cell-based
[12] = Half life in rat at 0.4 mg/kg, iv and 1 mg/kg, po; type: ADME, organism-based; conditions: in vivo
[13] = Volume of distribution at steady state in rat at 0.4 mg/kg, iv and 1 mg/kg, po; type: ADME, organism-based; conditions: in vivo, read-out: Vdss
[14] = test system: P-gp; experiment: Apparent permeability from apical to basolateral side of the dog MDCK cells expressing P-gp transporter; type: ADME, cell-based, Canis lupus familiaris; conditions: MDCK-MDR1
[15] = Clearance in male and female Beagle dog at 0.2 mg/kg, iv and 0.4 mg/kg, po; type: ADME, organism-based, Canis lupus familiaris; conditions: both, in vivo
[16] = Clearance in rat at 0.4 mg/kg, iv and 1 mg/kg, po; type: ADME, organism-based; conditions: in vivo

Epidermal growth factor receptor, sequence (P00533 whole entry): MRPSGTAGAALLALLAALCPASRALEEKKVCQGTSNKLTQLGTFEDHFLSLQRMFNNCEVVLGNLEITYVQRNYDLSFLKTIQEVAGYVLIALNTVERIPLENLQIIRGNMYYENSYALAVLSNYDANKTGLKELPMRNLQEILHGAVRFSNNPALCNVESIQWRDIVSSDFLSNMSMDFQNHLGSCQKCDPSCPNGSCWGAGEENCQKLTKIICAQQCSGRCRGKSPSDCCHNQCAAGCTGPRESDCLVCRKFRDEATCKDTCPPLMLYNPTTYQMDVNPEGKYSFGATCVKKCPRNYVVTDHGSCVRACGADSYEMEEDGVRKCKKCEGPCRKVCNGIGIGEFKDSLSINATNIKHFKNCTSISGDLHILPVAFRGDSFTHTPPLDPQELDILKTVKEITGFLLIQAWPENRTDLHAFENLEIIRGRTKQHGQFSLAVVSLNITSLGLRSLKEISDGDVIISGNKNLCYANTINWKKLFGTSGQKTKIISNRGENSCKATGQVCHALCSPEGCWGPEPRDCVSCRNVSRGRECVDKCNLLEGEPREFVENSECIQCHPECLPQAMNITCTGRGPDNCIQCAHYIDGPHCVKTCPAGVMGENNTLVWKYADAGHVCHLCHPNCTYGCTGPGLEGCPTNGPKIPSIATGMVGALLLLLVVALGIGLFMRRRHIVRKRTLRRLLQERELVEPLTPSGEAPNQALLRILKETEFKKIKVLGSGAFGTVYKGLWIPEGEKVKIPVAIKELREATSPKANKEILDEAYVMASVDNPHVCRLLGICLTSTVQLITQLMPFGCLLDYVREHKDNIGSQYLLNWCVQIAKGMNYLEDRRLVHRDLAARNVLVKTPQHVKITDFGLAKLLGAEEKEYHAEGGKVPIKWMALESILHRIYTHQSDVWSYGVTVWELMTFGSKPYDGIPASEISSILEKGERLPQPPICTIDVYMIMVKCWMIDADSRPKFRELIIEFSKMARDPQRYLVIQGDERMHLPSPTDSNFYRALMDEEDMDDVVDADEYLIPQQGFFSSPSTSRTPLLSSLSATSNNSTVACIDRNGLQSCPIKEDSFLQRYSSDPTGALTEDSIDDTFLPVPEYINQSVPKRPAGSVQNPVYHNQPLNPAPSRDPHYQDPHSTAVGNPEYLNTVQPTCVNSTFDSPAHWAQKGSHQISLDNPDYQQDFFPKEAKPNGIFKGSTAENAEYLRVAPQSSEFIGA

| Structure (SMILES) | IC50 [2] | IC50 [3] | IC50 [4] | other results |
| --- | --- | --- | --- | --- |
| CN1CCC(Oc2cccc3ncnc(Nc4ccc(OCc5ccccn5)c(Cl)c4)c23)CC1 | – | – | – | IC50 [1]: 41 nM |
| CNCCOc1n[nH]c2ncnc(Nc3ccc(OCc4ccccn4)c(Cl)c3)c12 | 17 nM | 3 nM | 1000 nM | – |
| Cc1ccc(Oc2ccc(Nc3ncnc4[nH]nc(OCCN5CCC(O)CC5)c34)cc2Cl)cn1 | 7 nM | < 1 nM | 184 nM | – |
| OC1CCN(CCOc2n[nH]c3ncnc(Nc4ccc(OCc5cccc(F)c5)c(Cl)c4)c23)CC1 | < 1 nM | < 1 nM | 19 nM | – |
| Clc1cc(Nc2ncnc3[nH]nc(OCCN4CCNCC4)c23)ccc1OCc1ccccn1 | 8 nM | 3 nM | 128 nM | – |
| Clc1cc(Nc2ncnc3[nH]nc(OCCCN4CCOCC4)c23)ccc1OCc1ccccn1 | 16 nM | < 1 nM | 440 nM | – |
| OC1CCN(CCCOc2n[nH]c3ncnc(Nc4ccc(OCc5ccccn5)c(Cl)c4)c23)CC1 | – | 6 nM | – | – |
| OCCOc1n[nH]c2ncnc(Nc3ccc(OCc4ccccn4)c(Cl)c3)c12 | 16 nM | 4 nM | – | – |
| Cc1ccc(Oc2ccc(Nc3ncnc4[nH]nc(OCCN5CCC(O)CC5)c34)cc2C)cn1 | – | 11 nM | 415 nM | – |
| Cc1ccc(Oc2ccc(Nc3ncnc4[nH]nc(OCCN5CCC(O)CC5)c34)cc2F)cn1 | 1430 nM | 5 nM | – | – |
| CC(=O)N1CCN(CCOc2n[nH]c3ncnc(Nc4ccc(OCc5ccccn5)c(Cl)c4)c23)CC1 | 3 nM | < 1 nM | 129 nM | – |
| CN1CCN(CCOc2n[nH]c3ncnc(Nc4ccc(OCc5ccccn5)c(Cl)c4)c23)CC1 | 5 nM | 1 nM | 166 nM | bioavailability [5]: 30%; half-life [6]: 2.4 h; Vd [7]: 9 L/kg; fraction unbound [8]: 0.21; fraction unbound [9]: 0.1; bioavailability [10]: 23%; IC50 [11]: 220 nM; half-life [12]: 1.4 h; Vd [13]: 4.5 L/kg; Papp A→B [14]: 9.5 ×10⁻⁶ cm/s; clearance [15]: 46 mL/min/kg; IC50 [1]: 17 nM; clearance [16]: 41 mL/min/kg |
| Clc1cc(Nc2ncnc3n[nH]c(OCCN4CCCCCO4)c23)ccc1OCc1ccccn1 | < 1 nM | < 1 nM | 148 nM | – |
| Clc1cc(Nc2ncnc3[nH]nc(OCCN4CCOCC4)c23)ccc1OCc1ccccn1 | 1 nM | < 1 nM | – | – |
| CN1CCN(CCCOc2n[nH]c3ncnc(Nc4ccc(OCc5ccccn5)c(Cl)c4)c23)CC1 | 14 nM | 4 nM | – | – |
| COc1cc(Nc2ncnc3[nH]nc(OCCN4CCC(O)CC4)c23)ccc1OCc1ccccn1 | – | 17 nM | 1480 nM | – |
| COc1cc(Nc2ncnc3[nH]nc(OCCN4CCC(O)CC4)c23)ccc1OCc1cccc(F)c1 | 13 nM | 3 nM | 613 nM | – |
| Cc1cc(Nc2ncnc3[nH]nc(OCCN4CCC(O)CC4)c23)ccc1OCc1ccccn1 | 18 nM | 5 nM | 695 nM | – |
| OC1CCN(CCOc2n[nH]c3ncnc(Nc4ccc(OCc5ccccn5)c(Cl)c4)c23)CC1 | 13 nM | 5 nM | 135 nM | – |
| COC1CCN(CCOc2n[nH]c3ncnc(Nc4ccc(OCc5ccccn5)c(Cl)c4)c23)CC1 | 28 nM | 4 nM | 82 nM | – |
| Cc1cc(Nc2ncnc3[nH]nc(OCCN4CCC(O)CC4)c23)ccc1OCc1cccc(F)c1 | < 1 nM | < 1 nM | 107 nM | – |
